The structures appear in SMILES notation. pEC50: −log10 of the molar value.

The subject of this test is HBV. As to the kind of experiment: Anti-HBV activity in vitro: quantification of extracellular HBV DNA by direct qPCR in HepAD38 cells. Type of test: cell-based. The note with it: Hepatitis B virus, tetracycline-free medium, 96 hours at 37°C, reported as EC50 threshold value, read-out: HBV inh EC50. From the text: HepAD38 cell line (Ladner et al., Antimicrob Agents Chemother, 1997, 41, 1715-20) was used for HBV inhibition assays. HepAD38 is a subclone, derived from Hepatoblastoma cell line HepG2 (ATCC® Number: HB-8065™), that expresses HBV genome under the transcriptional control of a tetracycline-responsive promoter in a TET-OFF system: addition of tetracycline (TET) or doxycycline suppresses HBV replication, while its removal switches on the process allowing HBV viral particles release in the cell supernatant. HepAD38 cell line is maintained in DMEM/F12, supplemented with 10% of fetal bovine serum, 1% of glutamine, 1% of penicillin/streptomycin, 0.4 mg/ml G418 and 0,3 ug/ml tetracycline. For the HBV inhibition assay, doxycycline-free medium is used in order to allow virion production.
HBV inhibition activity in vitro was performed in 96 multiwell plates. During the initial (primary) screening, compounds were first tested in triplicates at concentrations of 0.02 µM, 0.1 µM, 0.5µM and 1µM. For selected compounds, an 8-point dose-response curve was obtained using 1:2 serial dilutions (starting from 0.01µM, 0.1µM, 0.4µM or 5 µM, depending on the degree of inhibition observed during the primary screening). From the dose-response curves, half maximal effective concentration (EC50) could be calculated (see also below).
In more detail, compounds - typically dissolved in DMSO stock solutions - were diluted to 2x the final desired concentration in 100 µl of the above medium (without doxycycline) and plated in three replicates in the 96-well plates.
Simultaneously, HepAD38 cells - extensively pre-washed in tetracycline-free medium in order to induce HBV production - were suspended at 2^∗10^4 cells in 100 µl of tetracycline-free medium and added to each well of the plate, to yield a final assay volume of 200 µl DMSO - used for stock solutions and compounds dilutions - which was always present in the assays at a final concentration of 0.5%.
Plates were then incubated 96 hours at 37°C and then subjected to cell viability assays and extracellular HBV quantification, in order to evaluate both the cytotoxic potential and the antiviral activity of compounds. Cytotoxicity was assessed by a commercial fluorescence assay that measures the metabolic activity of cells, directly related to cell viability (Cell Titer Blue, Promega). Anti-HBV activity was evaluated by quantification of extracellular HBV DNA with direct qPCR. In particular, supernatant was collected and centrifuged for cell debris clarification, viral DNA was extracted from virions by addition of lysis buffer (1 mM 1,4-dithiothreitol, 0.2% sodium dodecyl sulphate) and incubated at 95°C for 10 min. Samples were then diluted 1:40 and real time PCR amplification was performed with SYBR green assay (Power SYBR™ Green PCR Master Mix-Thermo Fisher Scientific) and specific HBV primer (HBV-DF:5'-[…]-3' (SEQ ID No. 1), HBV-DR:5'-[…]-3' (SEQ ID No.2)).
Antiviral activity data for each compound are reported as EC50 threshold value (see Table 1 legend). Excel and Graphpad Prism programs are typically used for data elaboration and EC50 calculation.
In general terms: Quantitative PCR measures a nucleic acid by following its amplification.
By pEC50 is commonly meant −log10 of the EC50, conventionally taken in molar units. Take `Cc1cc(NC(=O)c2c3c(cn2C)S(=O)(=O)N[C@H]2CN(C(=O)C(=O)NC4CC4)C[C@H]2CO3)ccc1F` [Example E8, (3aR,10aR)-2-(2-(cyclopropylamino)-2-oxoacetyl)-N-(4-fluoro-3-methylphenyl)-7-methyl-2,3,3a,4,10,10a-hexahydro-1H,7H-dipyrrolo[3,4-b:3',4'-f][1,4,5]oxathiazocine-8-carboxamide 5,5-dioxide]: the pEC50 was more than 6.30. As for `Cc1cc(NC(=O)c2c3c(cn2C)S(=O)(=O)N[C@H]2CN(C(=O)C(=O)N[C@H](C)C(F)(F)F)C[C@H]2CO3)ccc1F` [Example E9, (3aR,10aR)-N-(4-fluoro-3-methylphenyl)-7-methyl-2-(2-oxo-2-(((R)-1,1,1-trifluoropropan-2-yl)amino)acetyl)-2,3,3a,4,10,10a-hexahydro-1H,7H-dipyrrolo[3,4-b:3',4'-f][1,4,5]oxathiazocine-8-carboxamide 5,5-dioxide], the pEC50 was more than 6.30. As for `Cc1cc(NC(=O)c2c3c(cn2C)S(=O)(=O)N[C@H]2CN(C(=O)C(=O)NC4CC(F)(F)C4)C[C@H]2CO3)ccc1F` [Example E14, (3aR,10aR)-2-(2-((3,3-difluorocyclobutyl)amino)-2-oxoacetyl)-N-(4-fluoro-3-methylphenyl)-7-methyl-2,3,3a,4,10,10a-hexahydro-1H,7H-dipyrrolo[3,4-b:3',4'-f][1,4,5]oxathiazocine-8-carboxamide 5,5-dioxide], the pEC50 is more than 6.30. The result for `Cc1cc(NC(=O)c2c3c(cn2C)S(=O)(=O)N[C@H]2CN(C(=O)C(=O)N[C@@H](C)C(F)(F)F)C[C@H]2CO3)ccc1F` [Example E15, (3aR,10aR)-N-(4-fluoro-3-methylphenyl)-7-methyl-2-(2-oxo-2-(((S)-1,1,1-trifluoropropan-2-yl)amino)acetyl)-2,3,3a,4,10,10a-hexahydro-1H,7H-dipyrrolo[3,4-b:3',4'-f][1,4,5]oxathiazocine-8-carboxamide 5,5-dioxide] reads more than 6.30; that for `Cc1cc(NC(=O)c2c3c(cn2C)S(=O)(=O)N[C@H]2CN(C(=O)C(=O)NCC(C)C)C[C@H]2CO3)ccc1F` [Example E16, (3aR,10aR)-N-(4-fluoro-3-methylphenyl)-2-(2-(isobutylamino)-2-oxoacetyl)-7-methyl-2,3,3a,4,10,10a-hexahydro-1H,7H-dipyrrolo[3,4-b:3',4'-f][1,4,5]oxathiazocine-8-carboxamide 5,5-dioxide], more than 6.30. For `Cc1cc(NC(=O)c2c3c(cn2C)S(=O)(=O)N[C@H]2CN(C(=O)C(=O)NCC(F)(F)F)C[C@H]2CO3)ccc1F` [Example E17, (3aR,10aR)-N-(4-fluoro-3-methylphenyl)-7-methyl-2-(2-oxo-2-((2,2,2-trifluoroethyl)amino)acetyl)-2,3,3a,4,10,10a-hexahydro-1H,7H-dipyrrolo[3,4-b:3',4'-f][1,4,5]oxathiazocine-8-carboxamide 5,5-dioxide], the pEC50 was more than 6.30. Consider `Cc1cc(NC(=O)c2c3c(cn2C)S(=O)(=O)N[C@H]2CN(C(=O)C(=O)NC4(C)CC4)C[C@H]2CO3)ccc1F` [Example E18, (3aR,10aR)-N-(4-fluoro-3-methylphenyl)-7-methyl-2-(2-((1-methylcyclopropyl)amino)-2-oxoacetyl)-2,3,3a,4,10,10a-hexahydro-1H,7H-dipyrrolo[3,4-b:3',4'-f][1,4,5]oxathiazocine-8-carboxamide 5,5-dioxide], for which the pEC50 was more than 6.30.

Take `Cc1cc(NC(=O)c2c3c(cn2C)S(=O)(=O)N[C@H]2CN(C(=O)C(=O)NC4(C(F)(F)F)CC4)C[C@H]2CO3)ccc1F` [Example E19, (3aR,10aR)-N-(4-fluoro-3-methylphenyl)-7-methyl-2-(2-oxo-2-((1-(trifluoromethyl)cyclopropyl)amino)acetyl)-2,3,3a,4,10,10a-hexahydro-1H,7H-dipyrrolo[3,4-b:3',4'-f][1,4,5]oxathiazocine-8-carboxamide 5,5-dioxide]: the pEC50 was more than 6.30. As to `Cc1cc(NC(=O)c2c3c(cn2C)S(=O)(=O)N[C@H]2CN(C(=O)C(=O)NCC4CC4)C[C@H]2CO3)ccc1F` [Example E20, (3aR,10aR)-2-(2-((cyclopropylmethyl)amino)-2-oxoacetyl)-N-(4-fluoro-3-methylphenyl)-7-methyl-2,3,3a,4,10,10a-hexahydro-1H,7H-dipyrrolo[3,4-b:3',4'-f][1,4,5]oxathiazocine-8-carboxamide 5,5-dioxide], the pEC50 was more than 6.30. The result for `Cc1cc(NC(=O)c2c3c(cn2C)S(=O)(=O)N[C@H]2CN(C(=O)C(=O)NC(C)C)C[C@H]2CO3)ccc1F` [Example E21, (3aR,10aR)-N-(4-fluoro-3-methylphenyl)-2-(2-(isopropylamino)-2-oxoacetyl)-7-methyl-2,3,3a,4,10,10a-hexahydro-1H,7H-dipyrrolo[3,4-b:3',4'-f][1,4,5]oxathiazocine-8-carboxamide 5,5-dioxide] reads more than 6.30. The result for `Cc1cc(NC(=O)c2c3c(cn2C)S(=O)(=O)N[C@H]2CN(C(=O)C(=O)NC4CCC4)C[C@H]2CO3)ccc1F` [Example E22, (3aR,10aR)-2-(2-(cyclobutylamino)-2-oxoacetyl)-N-(4-fluoro-3-methylphenyl)-7-methyl-2,3,3a,4,10,10a-hexahydro-1H,7H-dipyrrolo[3,4-b:3',4'-f][1,4,5]oxathiazocine-8-carboxamide 5,5-dioxide] reads more than 6.30; that for `Cc1cc(NC(=O)c2c3c(cn2C)S(=O)(=O)N[C@H]2CN(C(=O)C(=O)NC4CC4)C[C@H]2CS3)ccc1F` [Example E23, (3aR,10aR)-2-(2-(cyclopropylamino)-2-oxoacetyl)-N-(4-fluoro-3-methylphenyl)-7-methyl-2,3,3a,4,10,10a-hexahydro-1H,7H-dipyrrolo[3,4-c:3',4'-g][1,6,2]dithiazocine-8-carboxamide 5,5-dioxide], more than 6.30; that for `Cc1cc(NC(=O)c2c3c(cn2C)S(=O)(=O)N[C@H]2CN(C(=O)C(=O)N[C@H](C)C(F)(F)F)C[C@H]2CS3)ccc1F` [Example E24, (3aR,10aR)-N-(4-fluoro-3-methylphenyl)-7-methyl-2-(2-oxo-2-(((R)-1,1,1-trifluoropropan-2-yl)amino)acetyl)-2,3,3a,4,10,10a-hexahydro-1H,7H-dipyrrolo[3,4-c:3',4'-g][1,6,2] dithiazocine-8-carboxamide 5,5-dioxide], more than 6.30. As for `Cc1cc(NC(=O)c2c3c(cn2C)S(=O)(=O)N[C@H]2CN(C(=O)C(=O)N4CC(F)(F)C4)C[C@H]2CO3)ccc1F` [Example E29, (3aR,10aR)-2-(2-(3,3-difluoroazetidin-1-yl)-2-oxoacetyl)-N-(4-fluoro-3-methylphenyl)-7-methyl-2,3,3a,4,10,10a-hexahydro-1H,7H-dipyrrolo[3,4-b:3',4'-f][1,4,5]oxathiazocine-8-carboxamide 5,5-dioxide], the pEC50 is more than 6.30. With `Cc1cc(NC(=O)c2c3c(cn2C)S(=O)(=O)N[C@H]2CN(C(=O)C(=O)NC(C)(C)C(F)(F)F)C[C@H]2CO3)ccc1F` [Example E32, (3aR,10aR)-N-(4-fluoro-3-methylphenyl)-7-methyl-2-(2-oxo-2-((1,1,1-trifluoro-2-methylpropan-2-yl)amino)acetyl)-2,3,3a,4,10,10a-hexahydro-1H,7H-dipyrrolo[3,4-b:3',4'-f][1,4,5]oxathiazocine-8-carboxamide 5,5-dioxide], the pEC50 is more than 6.30. The result for `Cc1cc(NC(=O)c2c3c(cn2C)S(=O)(=O)N[C@H]2CN(C(=O)C(=O)NC4(C(F)(F)F)CCC4)C[C@H]2CO3)ccc1F` [Example E33, (3aR,10aR)-N-(4-fluoro-3-methylphenyl)-7-methyl-2-(2-oxo-2-((1-(trifluoromethyl)cyclobutyl)amino)acetyl)-2,3,3a,4,10,10a-hexahydro-1H,7H-dipyrrolo[3,4-b:3',4'-f][1,4,5]oxathiazocine-8-carboxamide 5,5-dioxide] reads more than 6.30; that for `Cc1cc(NC(=O)c2c3c(cn2C)S(=O)(=O)N[C@H]2CN(C(=O)C(N)=O)C[C@H]2CS3)ccc1F` [Example E34, (3aR,10aR)-2-(2-amino-2-oxoacetyl)-N-(4-fluoro-3-methylphenyl)-7-methyl-2,3,3a,4,10,10a-hexahydro-1H,7H-dipyrrolo[3,4-c:3',4'-g][1,6,2]dithiazocine-8-carboxamide 5,5-dioxide], more than 6.30.

Source of the values: EP3741762A1, “OXALAMIDO-SUBSTITUTED TRICYCLIC INHIBITORS OF HEPATITIS B VIRUS” (priority 2019, dated 2020).
